These results are taken from patent US20240150358A1, “PURINES AND METHODS OF THEIR USE” (Kineta, Inc., priority 2020, published 2024).

Read-outs that look alike come from different tables or passages of the source. Some results are limits rather than exact numbers.

The target in test [1] is full-length human PIKFYVE (Homo sapiens (Human), UniProt Q9Y2I7, L932S/Q1183K/Q995L/S1033A/S696N/T998S). Put plainly: PIKfyve biochemical assay (ADP-Glo Kinase assay, Carna Biosciences). A general note: ADP-Glo first removes unused ATP, then detects ADP through luciferase.
Test [2] relates to FAB1 TDP-43 yeast strain. Put plainly: Propidium iodide flow cytometry viability assay, control FAB1 TDP-43 yeast strain. The format is cell-based. The following applies: 15 μM to 0.11 μM. An excerpt:
(§1) Generation of TDP-43 yeast model expressing human PIKfyve. Human PIKFYVE (“entry clone”) was cloned into pAG416GPDccdB (“destination vector”) according to standard Gateway cloning protocols (Invitrogen, Life Technologies). The resulting pAG416GPD-PIKFYVE plasmids were amplified in E. coli and plasmid identity confirmed by restriction digest and Sanger sequencing. Lithium acetate/polyethylene glycol-based transformation was used to introduce the above PIKFYVE plasmid into a BY4741 yeast strain auxotrophic for the ura3 gene and deleted for two transcription factors that regulate the xenobiotic efflux pumps, a major efflux pump, and FAB1, the yeast ortholog of PIKFYVE (MATa, snq2::KILeu2; pdr3::Klura3; pdr1::NATMX; fab1::G418R, his3; leu2; ura3; met15; LYS2+) (FIG. 2). Transformed yeast were plated on solid agar plates with complete synthetic media lacking uracil (CSM-ura) and containing 2% glucose. Individual colonies harboring the control or PIKFYVE TDP-43 plasmids were recovered. A plasmid containing wild-type TDP-43 under the transcriptional control of the GAL1 promoter and containing the hygromycin-resistance gene as a selectable marker was transformed into the fab/::G418R pAG416GPD-PIKFYVE yeast strain (FIG. 1). Transformed yeast were plated on CSM-ura containing 2% glucose and […] after overnight recovery in media lacking antibiotic. Multiple independent isolates were further evaluated for cytotoxicity and TDP-43 expression levels.
(§2) Viability Assay. A control yeast strain with the wild-type yeast FAB1 gene and TDP-43 (“FAB1 TDP-43”, carries empty pAG416 plasmid), and the “PIKFYVE TDP-43” yeast strain, were assessed for toxicity using a propidium iodide viability assay. Both yeast strains were transferred from solid CSM-ura/2% glucose agar plates into 3 mL of liquid CSM-ura/2% glucose media for 6-8 hours at 30° C. with aeration. Yeast cultures were then diluted to an optical density at 600 nm wavelength (OD600) of 0.005 in 3 mL of CSM-ura/2% raffinose and grown overnight at 30° C. with aeration to an OD600 of 0.3-0.8. Log-phase overnight cultures were diluted to OD600 of 0.005 in CSM-ura containing either 2% raffinose or galactose and 150 μL dispensed into each well of a flat bottom 96-well plates. Compounds formulated in 100% dimethyl sulfoxide (DMSO) were serially diluted in DMSO and 1.5 μL diluted compound transferred to the 96-well plates using a multichannel pipet. Wells containing DMSO alone were also evaluated as controls for compound effects. Tested concentrations ranged from 15 μM to 0.11 μM. Cultures were immediately mixed to ensure compound distribution and covered plates incubated at 30° C. for 24 hours in a stationary, humified incubator.
(§3) Upon the completion of incubation, cultures were assayed for viability using propidium iodide (PI) to stain for dead/dying cells. A working solution of PI was made where, for each plate, 1 μL of 10 mM PI was added to 10 mL of CSM-ura (raffinose or galactose). The final PI solution ([…]) was dispensed into each well of a new round bottom 96-well plate. The overnight 96-well assay plate was then mixed with a multichannel pipet and 50 μL transferred to the PI-containing plate. This plate was then incubated for 30 minutes at 30° C. in the dark. A benchtop flow cytometer (Miltenyi MACSquant) was then used to assess red fluorescence (B2 channel), forward scatter, and side scatter (with following settings: gentle mix, high flow rate, fast measurement, 10,000 events). Intensity histograms were then gated for “PI-positive” or “PI-negative” using the raffinose and galactose cultures treated with DMSO as controls. The DMSO controls for raffinose or galactose-containing cultures were used to determine the window of increased cell death and this difference set to 100. All compounds were similarly gated and then compared to this maximal window to establish the percent reduction in PI-positive cells.
On the technique in general: A flow cytometer gives signals particle by particle.

Test [3] relates to PIKFYVE TDP-43 yeast strain. Put plainly: Propidium iodide flow cytometry viability assay, PIKFYVE TDP-43 yeast strain. It counts as cell-based. The following applies: for PIKfyve TDP-43 (active/inactive): yeast viability, 15 μM to 0.11 μM; for IC50: reduction in PI-positive cells, values plotted in FIG. 7.
From the text: as §1, §2, §3

Test [4] has as its target hPIKfyve (Homo sapiens (Human), UniProt Q9Y2I7). Put plainly: NanoBRET TE Intracellular Kinase Assay, K-8, in HEK293 cells transfected with PIKFYVE-NanoLuc Fusion Vector. The format is cell-based. The following applies: 2 hours, tracer displacement, read-out: hPIKfyve BRET IC50. Here is the method:
NanoBRET™ TE Intracellular Kinase Assay, K-8 (Promega) Cell-Based Assay. Intracellular inhibition of PIKfyve was assayed using Promega's NanoBRET™ TE Intracellular Kinase Assay, K-8 according to manufacturer's instructions. A dilution series of test compounds was added for 2 hours to HEK293 cells transfected for a minimum of 20 hours with PIKFYVE-NanoLuc® Fusion Vector (Promega) containing a full-length PIKfyve according to manufacturer's specifications in a 96-well plate. Kinase activity was detected by addition of a NanoBRET™ tracer reagent, which was a proprietary PIKfyve inhibitor appended to a fluorescent probe (BRET, bioluminescence resonance energy transfer). Test compounds were tested at concentrations of 10, 3, 1, 0.3, 0.1, 0.03, 0.01, 0.003 μM. BRET signals were measured by a GloMax®Discover Multimode Microplate Reader (Promega) using 0.3 sec/well integration time, 450BP donor filter and 600LP acceptor filters. Active test compounds that bound PIKfyve and displaced the tracer reduced BRET signal. IC50 values were then calculated by fitting the data to the normalized BRET ratio.
(In general: In BRET a luciferase serves as donor, and the signal depends on an acceptor being close.)

Where [5] appears, read: ADP-Glo with full-length PIKfyve, read-out: PIKfyve IC50.
Setting [6] is: values plotted in FIG. 7, read-out: PIKFYVE Biochemistry (IC50).
Where [7] appears, read: ADP-Glo, GST-PIKFYVE, 10 μM to 3 nM, read-out: hPIKfyve IC50.

hPIKfyve, sequence (Q9Y2I7 whole entry, the tested form may be a part): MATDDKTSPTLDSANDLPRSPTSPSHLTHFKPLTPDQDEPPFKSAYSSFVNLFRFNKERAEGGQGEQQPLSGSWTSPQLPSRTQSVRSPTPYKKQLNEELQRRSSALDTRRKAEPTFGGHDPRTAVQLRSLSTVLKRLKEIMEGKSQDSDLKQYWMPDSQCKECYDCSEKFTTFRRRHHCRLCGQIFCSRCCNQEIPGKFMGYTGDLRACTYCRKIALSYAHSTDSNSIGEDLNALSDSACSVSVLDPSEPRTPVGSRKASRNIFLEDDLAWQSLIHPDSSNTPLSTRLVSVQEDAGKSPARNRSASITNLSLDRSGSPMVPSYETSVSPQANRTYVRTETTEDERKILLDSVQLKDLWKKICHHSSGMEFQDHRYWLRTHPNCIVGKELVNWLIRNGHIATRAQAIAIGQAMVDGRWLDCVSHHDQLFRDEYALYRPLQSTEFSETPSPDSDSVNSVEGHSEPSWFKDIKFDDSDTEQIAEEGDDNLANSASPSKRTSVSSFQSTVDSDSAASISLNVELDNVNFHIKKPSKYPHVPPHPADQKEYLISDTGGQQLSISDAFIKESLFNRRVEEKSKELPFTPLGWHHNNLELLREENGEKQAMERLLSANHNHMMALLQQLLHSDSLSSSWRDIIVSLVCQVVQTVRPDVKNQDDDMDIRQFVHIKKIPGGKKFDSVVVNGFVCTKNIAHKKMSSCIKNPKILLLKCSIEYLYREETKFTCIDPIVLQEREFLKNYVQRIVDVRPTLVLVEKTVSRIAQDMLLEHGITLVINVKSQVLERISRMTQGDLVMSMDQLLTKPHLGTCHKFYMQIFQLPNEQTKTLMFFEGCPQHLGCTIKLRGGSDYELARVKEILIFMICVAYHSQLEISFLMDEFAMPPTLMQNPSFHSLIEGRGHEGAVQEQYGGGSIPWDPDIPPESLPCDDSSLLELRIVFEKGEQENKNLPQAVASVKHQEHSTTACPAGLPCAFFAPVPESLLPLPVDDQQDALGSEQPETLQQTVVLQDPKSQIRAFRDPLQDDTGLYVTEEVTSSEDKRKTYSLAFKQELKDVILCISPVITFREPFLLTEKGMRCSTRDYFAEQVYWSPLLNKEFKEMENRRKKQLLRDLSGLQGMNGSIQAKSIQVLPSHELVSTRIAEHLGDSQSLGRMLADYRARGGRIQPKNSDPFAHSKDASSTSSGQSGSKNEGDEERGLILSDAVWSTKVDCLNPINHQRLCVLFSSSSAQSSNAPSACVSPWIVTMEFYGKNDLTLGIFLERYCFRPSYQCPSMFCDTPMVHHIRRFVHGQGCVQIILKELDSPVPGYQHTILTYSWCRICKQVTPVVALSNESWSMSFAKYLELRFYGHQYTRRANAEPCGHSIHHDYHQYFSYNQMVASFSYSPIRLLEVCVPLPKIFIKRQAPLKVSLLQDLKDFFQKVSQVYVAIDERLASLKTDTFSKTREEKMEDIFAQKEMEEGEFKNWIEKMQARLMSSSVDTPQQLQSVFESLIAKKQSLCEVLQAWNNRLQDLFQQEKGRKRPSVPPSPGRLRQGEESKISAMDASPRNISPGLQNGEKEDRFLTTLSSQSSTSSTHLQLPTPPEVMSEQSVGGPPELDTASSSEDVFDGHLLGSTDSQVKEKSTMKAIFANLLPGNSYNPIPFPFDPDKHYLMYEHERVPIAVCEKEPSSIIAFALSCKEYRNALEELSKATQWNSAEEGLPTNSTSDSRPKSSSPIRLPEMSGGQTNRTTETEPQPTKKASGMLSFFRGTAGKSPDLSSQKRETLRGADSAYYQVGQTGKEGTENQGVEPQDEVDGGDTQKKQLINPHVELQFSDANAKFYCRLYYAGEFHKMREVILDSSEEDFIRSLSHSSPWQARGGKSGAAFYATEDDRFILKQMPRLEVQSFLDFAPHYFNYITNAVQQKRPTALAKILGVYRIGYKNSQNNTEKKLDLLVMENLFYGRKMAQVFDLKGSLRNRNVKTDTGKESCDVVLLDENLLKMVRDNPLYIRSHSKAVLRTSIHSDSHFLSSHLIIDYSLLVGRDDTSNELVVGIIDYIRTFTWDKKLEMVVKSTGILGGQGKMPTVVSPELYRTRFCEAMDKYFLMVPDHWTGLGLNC
full-length human PIKFYVE, sequence (Q9Y2I7 whole entry S696N/L932S/Q995L/T998S/S1033A/Q1183K): as the sequence (Q9Y2I7 whole entry, the tested form may be a part) above, with S696N, L932S, Q995L, T998S, S1033A, Q1183K counted along it

With `Cc1cccc(/C=N/Nc2cc(N3CCOCC3)nc(OCCc3ccc(CN)cc3)n2)c1`, in test [1] (setting [5]), the IC50 was 12 nM. Moreover, the “FAB1 TDP-43 (active/inactive)” value in test [2] is listed as “Inactive”. The “PIKfyve TDP-43 (active/inactive)” value in test [3] is recorded as “Active”. `Cc1cccc(/C=N/Nc2cc(N3CCOCC3)nc(OCCc3ccccn3)n2)c1`: in test [2], the “FAB1 TDP-43 (active/inactive)” value is “Inactive”. Besides, the “PIKfyve TDP-43 (active/inactive)” value in test [3] was “Inactive”. With `CN(C)c1cc(N2CCOCC2)n2nc(-c3ccncc3)cc2n1`, the “FAB1 TDP-43 (active/inactive)” value in test [2] was “Inactive”. Also, the “PIKfyve TDP-43 (active/inactive)” value in test [3] is “Inactive”. On to `N#Cc1cc(N2CCOCC2)n2nc(-c3ccncc3)cc2n1`, for which, in test [1] (setting [5]), the IC50 is more than 10000 nM. In test [2], the “FAB1 TDP-43 (active/inactive)” value is on record as “Inactive”. The “PIKfyve TDP-43 (active/inactive)” value in test [3] was “Inactive”.

With `Cc1cccc(/C=N/Nc2cc(N3CC4CC3CO4)n3nc(-c4ccncc4)cc3n2)c1` (centres unmarked), the IC50 is 3 nM in test [1] (setting [6]) and 450 nM in test [3] (Saccharomyces cerevisiae).

Regarding `c1ccc(C2CN(c3nc(N4CCOCC4)n4nc(-c5ccncc5)cc4n3)CCN2)cc1` (centres unmarked), the IC50 in test [1] (setting [6]) is 2660 nM; in test [3] (Saccharomyces cerevisiae) it was more than 15000 nM. For the molecule `c1ccc(-c2cccc(-c3nc(N4CCOCC4)n4nc(-c5ccncc5)cc4n3)n2)cc1`, the IC50 in test [1] (setting [6]) stood at 14 nM; in test [3] (Saccharomyces cerevisiae), 230 nM. For `c1cc(-c2cc3nc(C4CNC4)nc(N4CCOCC4)n3n2)ccn1` the same measures were 8020 nM and more than 15000 nM. On to `Oc1cc(-c2ccccc2)nn1-c1cc(N2CCOCC2)n2nc(-c3ccncc3)nc2n1`, for which the IC50 in test [3] (Saccharomyces cerevisiae) is 693 nM. Same read-out and setting: the figure for `Oc1cc(C2CCOCC2)nn1-c1cc(N2CCOCC2)n2nc(-c3ccncc3)cc2n1` is 9100 nM. As to `Cc1cccc(/C=N/Nc2nc(N3CCOCC3)c3ncccc3n2)c1`, half-maximal inhibition in test [3] (Saccharomyces cerevisiae) (IC50) was put at 8210 nM. `c1ccc(-c2ccnc(-c3cc(N4CCOCC4)nc(OCc4ccncc4)n3)n2)cc1`: in test [3] (Saccharomyces cerevisiae), 1450 nM corresponded to half-maximal inhibition (IC50). On the same count and under the same terms, the figure for `c1ccc(N2CCc3c(OCc4cccnc4)nc(N4CCOCC4)nc32)cc1` is 2680 nM. Regarding `Fc1cccc(-c2ccnn2-c2nc(N3CCOCC3)c3ncccc3n2)c1`, the IC50 in test [1] (setting [6]) is more than 10000 nM; in test [3] (Saccharomyces cerevisiae), 5750 nM.

For the molecule `Cn1c(-c2ccncc2)nc2c(N3CCOCC3)nc(-c3ccnc(-c4ccccc4)n3)nc21` [Compound 1], the IC50 in test [1] (setting [7]) and in test [4] was 10 to 100 nM each time. On to `c1cc(-c2nc3c(N4CCOCC4)nc(-n4ccc(C5CCOCC5)n4)nc3[nH]2)ccn1` [Compound 6], for which the IC50 in test [1] (setting [7]) and in test [4] was 10 to 100 nM in each case.

As to `Cn1c(-c2ccncc2)nc2c(N3CCOCC3)nc(-n3ccc(-c4cccc(F)c4)n3)nc21` [Compound 28], the IC50 in test [1] (setting [7]) and in test [4] was 10 to 100 nM in each case. In the case of `Cn1c(-c2ccncc2)nc2c(N3CCOCC3)nc(-c3noc(-c4ccccc4)n3)nc21` [Compound 32], the IC50 in test [1] (setting [7]) was in the range of 10 to 100 nM; in test [4], 100 to 1000 nM. The matching figures for `CN1CCC(c2ccn(-c3nc(N4CCOCC4)c4nc(-c5ccncc5)n(C)c4n3)n2)C1` (centres unmarked) [Compound 37]: 100 to 1000 nM and 1000 to 10000 nM. The matching figures for `Cn1c(-c2ccncc2)nc2c(N3CCOCC3)nc(-n3cccn3)nc21` [Compound 47]: 10 to 100 nM and 100 to 1000 nM. Regarding `Cc1cccc(/C=N/Nc2nc(N3CCOCC3)c3nc(-c4ccncc4)n(C)c3n2)c1` [Compound 52, (E)-4-(9-methyl-2-(2-(3-methylbenzylidene)hydrazineyl)-8-(pyridin-4-yl)-9H-purin-6-yl)morpholine], the IC50 in test [1] (setting [7]) and in test [4] was less than 10 nM throughout. Turning to `Cc1cccc(/C=N/Nc2nc(N3CCOCC3)c3nc(-c4ccncc4)n(C)c3n2)c1` [Compound 118], the IC50 in test [1] (setting [7]) and in test [4] was 10 to 100 nM each time.

For `Cc1cccc(/C=N/Nc2nc(N3CCOCC3)c3nc(-c4ccncc4)[nH]c3n2)c1` [Compound 119], the IC50 in test [1] (setting [7]) and in test [4] was less than 10 nM each time.

In the case of `Cc1cccc(/C=N/Nc2nc(N3CCOCC3)c3nc(-c4ccncc4)oc3n2)c1` [Compound 120], in test [1] (setting [7]), the IC50 is less than 10 nM. Turning to `Cc1cccc(/C=N/Nc2nc(N3CCOCC3)c3nc(-c4ccncc4)sc3n2)c1` [Compound 121], the IC50 in test [1] (setting [7]) was less than 10 nM. With `c1ccc(-c2nccc(-c3nc(N4CCOCC4)c4cc(-c5ccncc5)sc4n3)n2)cc1` [Compound 122], the IC50 in test [1] (setting [7]) was in the range of 10 to 100 nM.

As to `c1ccc(-c2nccc(-c3nc(N4CCOCC4)c4nc(-c5ccncc5)sc4n3)n2)cc1` [Compound 123], the IC50 in test [1] (setting [7]) lay in the range of 10 to 100 nM. Still for that read-out and setting: the figure for `c1ccc(-n2ccc(-c3nc(N4CCOCC4)c4cc(-c5ccncc5)sc4n3)n2)cc1` [Compound 124] is 10 to 100 nM; for `c1ccc(-c2nccc(-c3nc(N4CCOCC4)c4sc(-c5ccncc5)nc4n3)n2)cc1` [Compound 125] it is 100 to 1000 nM. Take `Cc1cccc(/C=N/Nc2cc(N3CCOCC3)n3nc(-c4ccncc4)cc3n2)c1` [drawing 161]: the “FAB1 TDP-43 (active/inactive)” value in test [2] is “Inactive”. Moreover, in test [3], the “PIKfyve TDP-43 (active/inactive)” value was “Active”. As for `Cc1cccc(/C=N/Nc2cc(N3CCOCC3)n3nc(-c4ccncc4)cc3n2)c1` [drawing 163], the “FAB1 TDP-43 (active/inactive)” value in test [2] is “Inactive”. Moreover, the “PIKfyve TDP-43 (active/inactive)” value in test [3] is on record as “Active”. Take `Cc1cccc(/C=N/Nc2nc(N3CCOCC3)c3nc(-c4ccncc4)n(C)c3n2)c1` [drawing 168]: the IC50 stood at 1 nM in test [1] (setting [6]) and 1390 nM in test [3]. For `Cn1c(-c2ccncc2)nc2c(N3CCOCC3)ncnc21` [drawing 169] the same measures were 7 nM and 1120 nM.

`Cc1cccc(/C=N/Nc2nc(N3CCOCC3)c3nc(-c4ccncc4)n(C)c3n2)c1` [drawing 177]: the IC50 in test [1] (setting [6]) came out at 5 nM; in test [3] it was 4720 nM.

The IC50 is the concentration that gives 50% inhibition.
